Measured values: patent US20260183275A1, “SUBSTITUTED QUINOLONE COMPOUNDS USEFUL AS INHIBITORS OF TLR9” (Bristol-Myers Squibb Company, priority 2022, published 2026)
pIC50: −log10 of the molar value.

Assays:
Type in all cases: cell-based
human TLR7 = molecular target: T1, human TLR7 (Homo sapiens, UniProt Q9NYK1); assay: TLR7 inhibition reporter assay (HEK-Blue cells, SEAP reporter); conditions: HEK-Blue cells overexpressing human TLR7; stimulated with gardiquimod 7.5 μM; SEAP read after 22 hour; dose range 0.05 nM-50 μM
T1 construct: host or cells: HEK-Blue cells
T1 sequence (Q9NYK1 27-1049): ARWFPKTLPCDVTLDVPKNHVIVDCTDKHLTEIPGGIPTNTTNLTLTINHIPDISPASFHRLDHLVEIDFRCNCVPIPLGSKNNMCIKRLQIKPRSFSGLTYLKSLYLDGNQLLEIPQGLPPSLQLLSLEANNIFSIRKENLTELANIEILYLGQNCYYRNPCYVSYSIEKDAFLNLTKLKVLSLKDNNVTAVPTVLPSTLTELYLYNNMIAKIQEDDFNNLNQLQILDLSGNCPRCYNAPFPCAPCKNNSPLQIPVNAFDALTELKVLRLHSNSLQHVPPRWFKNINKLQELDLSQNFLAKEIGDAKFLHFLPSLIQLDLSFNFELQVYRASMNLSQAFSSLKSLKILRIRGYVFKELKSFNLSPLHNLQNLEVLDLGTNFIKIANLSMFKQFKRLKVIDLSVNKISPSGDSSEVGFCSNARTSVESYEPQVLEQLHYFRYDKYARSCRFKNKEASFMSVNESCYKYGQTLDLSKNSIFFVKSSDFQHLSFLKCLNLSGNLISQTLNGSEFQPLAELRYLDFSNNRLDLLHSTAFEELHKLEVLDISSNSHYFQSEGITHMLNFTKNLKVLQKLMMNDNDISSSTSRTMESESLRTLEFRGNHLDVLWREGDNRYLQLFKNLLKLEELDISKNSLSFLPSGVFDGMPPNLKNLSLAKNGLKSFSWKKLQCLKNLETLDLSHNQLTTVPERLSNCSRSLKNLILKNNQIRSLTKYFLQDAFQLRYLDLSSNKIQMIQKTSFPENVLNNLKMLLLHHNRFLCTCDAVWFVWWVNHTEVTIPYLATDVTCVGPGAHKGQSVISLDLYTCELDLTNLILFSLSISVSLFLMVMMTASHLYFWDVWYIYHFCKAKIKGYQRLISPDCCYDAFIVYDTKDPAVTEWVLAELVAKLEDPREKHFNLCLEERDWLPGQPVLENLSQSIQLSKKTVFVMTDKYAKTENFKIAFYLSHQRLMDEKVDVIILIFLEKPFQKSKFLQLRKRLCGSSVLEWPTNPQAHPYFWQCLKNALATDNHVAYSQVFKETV
Outline: (§1)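 HEK-Blue cells with NF-κB/AP-1-driven SEAP pre-treated 30 min with compounds (0.05 nM-50 μM), then stimulated with gardiquimod 7.5 μM (TLR7), R848 15.9 μM (TLR8) or ODN2006 5 nM (TLR9). SEAP read after 22 h at 37° C; % inhibition relative to agonist+DMSO and reference-inhibitor wells.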

human TLR8 = molecular target: T2, human TLR8 (Homo sapiens, UniProt Q9NR97); assay: TLR8 inhibition reporter assay (HEK-Blue cells, SEAP reporter); conditions: HEK-Blue cells overexpressing human TLR8; stimulated with R848 15.9 μM; SEAP read after 22 hour; dose range 0.05 nM-50 μM
T2 construct: host or cells: HEK-Blue cells
T2 sequence (Q9NR97 27-1041): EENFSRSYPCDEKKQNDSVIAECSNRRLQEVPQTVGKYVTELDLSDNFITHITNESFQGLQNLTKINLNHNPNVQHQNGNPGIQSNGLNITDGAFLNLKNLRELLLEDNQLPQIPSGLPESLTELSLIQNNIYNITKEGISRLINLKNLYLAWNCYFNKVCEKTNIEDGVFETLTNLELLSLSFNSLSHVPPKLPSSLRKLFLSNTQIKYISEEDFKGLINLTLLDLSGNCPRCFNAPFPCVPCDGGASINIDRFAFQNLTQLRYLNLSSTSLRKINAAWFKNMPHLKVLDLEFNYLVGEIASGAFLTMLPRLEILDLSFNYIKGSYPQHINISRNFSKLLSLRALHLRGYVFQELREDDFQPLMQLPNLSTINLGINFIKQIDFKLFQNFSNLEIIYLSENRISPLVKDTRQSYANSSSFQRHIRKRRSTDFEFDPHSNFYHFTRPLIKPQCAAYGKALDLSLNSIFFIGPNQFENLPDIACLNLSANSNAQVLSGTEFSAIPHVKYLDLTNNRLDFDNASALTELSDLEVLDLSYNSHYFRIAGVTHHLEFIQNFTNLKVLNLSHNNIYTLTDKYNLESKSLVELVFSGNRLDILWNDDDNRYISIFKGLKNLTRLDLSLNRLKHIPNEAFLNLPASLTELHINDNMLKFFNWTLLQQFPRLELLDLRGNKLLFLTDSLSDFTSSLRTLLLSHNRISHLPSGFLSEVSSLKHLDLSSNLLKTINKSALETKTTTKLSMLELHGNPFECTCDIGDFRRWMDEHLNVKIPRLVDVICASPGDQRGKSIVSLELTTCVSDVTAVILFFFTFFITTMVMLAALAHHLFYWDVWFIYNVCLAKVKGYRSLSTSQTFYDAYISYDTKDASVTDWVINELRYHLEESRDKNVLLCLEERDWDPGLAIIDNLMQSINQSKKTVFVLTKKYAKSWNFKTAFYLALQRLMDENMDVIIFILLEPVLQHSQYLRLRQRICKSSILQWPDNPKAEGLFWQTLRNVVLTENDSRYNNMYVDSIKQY
Outline: as §1

human TLR9 = molecular target: T3, human TLR9 (Homo sapiens, UniProt Q9NR96); assay: TLR9 inhibition reporter assay (HEK-Blue cells, SEAP reporter); conditions: HEK-Blue cells overexpressing human TLR9; stimulated with ODN2006 5 nM; SEAP read after 22 hour; dose range 0.05 nM-50 μM
T3 construct: host or cells: HEK-Blue cells
T3 sequence (Q9NR96 26-1032): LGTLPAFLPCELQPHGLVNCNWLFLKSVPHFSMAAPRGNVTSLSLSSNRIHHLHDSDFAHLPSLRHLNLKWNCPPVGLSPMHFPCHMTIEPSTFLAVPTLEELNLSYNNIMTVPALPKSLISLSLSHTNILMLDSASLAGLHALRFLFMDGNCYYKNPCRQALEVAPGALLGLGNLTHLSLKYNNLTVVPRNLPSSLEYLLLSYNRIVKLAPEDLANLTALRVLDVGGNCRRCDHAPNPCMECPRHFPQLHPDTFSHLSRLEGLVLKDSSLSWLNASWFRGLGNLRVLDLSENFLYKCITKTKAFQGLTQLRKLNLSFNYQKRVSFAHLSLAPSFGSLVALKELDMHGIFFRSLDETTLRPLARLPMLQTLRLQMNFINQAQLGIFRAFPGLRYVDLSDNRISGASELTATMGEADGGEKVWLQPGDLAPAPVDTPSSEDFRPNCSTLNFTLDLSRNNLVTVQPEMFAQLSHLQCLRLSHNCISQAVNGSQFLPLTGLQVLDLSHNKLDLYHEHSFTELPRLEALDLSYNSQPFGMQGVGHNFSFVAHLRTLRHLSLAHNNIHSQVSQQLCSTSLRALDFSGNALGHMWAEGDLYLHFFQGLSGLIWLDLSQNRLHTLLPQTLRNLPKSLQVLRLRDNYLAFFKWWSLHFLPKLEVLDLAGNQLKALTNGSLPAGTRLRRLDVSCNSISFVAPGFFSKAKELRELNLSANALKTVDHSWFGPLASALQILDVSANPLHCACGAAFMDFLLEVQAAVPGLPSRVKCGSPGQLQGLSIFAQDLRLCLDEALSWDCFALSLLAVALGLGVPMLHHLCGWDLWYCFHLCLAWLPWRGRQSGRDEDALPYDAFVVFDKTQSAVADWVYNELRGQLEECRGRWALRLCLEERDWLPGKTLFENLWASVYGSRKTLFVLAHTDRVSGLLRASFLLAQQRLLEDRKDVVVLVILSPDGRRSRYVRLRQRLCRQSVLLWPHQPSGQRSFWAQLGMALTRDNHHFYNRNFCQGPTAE
Outline: as §1

| Compound | pIC50 (human TLR7) | pIC50 (human TLR8) | pIC50 (human TLR9) |
| --- | --- | --- | --- |
| CS(=O)(=O)Nc1cccc(-c2cc3cc(-c4ccc(C5CCN(C6COC6)CC5)cc4)ccc3[nH]c2=O)c1 [Example 98, N-[3-(6-{4-[1-(oxetan-3-yl)piperidin-4-yl]phenyl}-2-oxo-1,2-dihydroquinolin-3-yl)phenyl]methanesulfonamide] | ≤ 4.30 | 4.57 | 5.84 |
| N#Cc1cccc(-c2cc3cc(-c4ccc(C5CCN(C6COC6)CC5)cc4)ccc3[nH]c2=O)c1 [Example 99, 3-(6-{4-[1-(oxetan-3-yl)piperidin-4-yl]phenyl}-2-oxo-1,2-dihydroquinolin-3-yl) benzonitrile] | 4.78 | ≤ 4.30 | 5.78 |
| Cn1c(=O)c(-c2ccccc2)cc2cc(-c3ccc(C4CCN(C5COC5)CC4)cc3)ccc21 [Example 100, 1-methyl-6-{4-[1-(oxetan-3-yl)piperidin-4-yl]phenyl}-3-phenyl-1,2-dihydroquinolin-2-one] | ≤ 4.30 | 5.72 | 5.64 |
| CCc1c(-c2ccc(S(C)(=O)=O)cc2)c(=O)n(C)c2ccc(-c3ccc(C4CCN(C5COC5)CC4)cc3)cc12 [Example 101, 4-ethyl-3-(4-methanesulfonylphenyl)-1-methyl-6-{4-[1-(oxetan-3-yl)piperidin-4-yl]phenyl}-1,2-dihydroquinolin-2-one] | ≤ 4.30 | 5.87 | 5.63 |
